Source: ChEMBL document CHEMBL5291721, “A preclinical secondary pharmacology resource illuminates target-adverse drug reaction associations of marketed drugs” (Nat Commun, 2023)

Experiments:
[1] = target: T1, Muscarinic acetylcholine receptor M1 (Homo sapiens, UniProt P11229); format: functional
T1 sequence (P11229 whole entry): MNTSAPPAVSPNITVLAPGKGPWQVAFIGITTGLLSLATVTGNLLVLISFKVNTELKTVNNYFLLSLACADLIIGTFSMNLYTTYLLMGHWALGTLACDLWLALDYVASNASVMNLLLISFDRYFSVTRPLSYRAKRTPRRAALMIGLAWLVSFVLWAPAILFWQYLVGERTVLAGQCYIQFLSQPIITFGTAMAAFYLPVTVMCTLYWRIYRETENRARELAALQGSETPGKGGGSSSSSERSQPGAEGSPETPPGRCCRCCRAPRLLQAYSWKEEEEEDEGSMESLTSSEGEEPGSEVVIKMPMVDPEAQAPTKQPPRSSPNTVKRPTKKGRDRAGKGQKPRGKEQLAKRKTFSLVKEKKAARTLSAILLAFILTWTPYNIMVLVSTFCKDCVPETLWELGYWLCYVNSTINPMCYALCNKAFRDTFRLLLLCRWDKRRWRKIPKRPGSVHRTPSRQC

Vasopressin V1a receptor = Vasopressin V1a receptor (Homo sapiens, UniProt P37288)
[2] = target: T2, 5-hydroxytryptamine receptor 1A (Homo sapiens, UniProt P08908); format: functional, cell-based
T2 sequence (P08908 whole entry): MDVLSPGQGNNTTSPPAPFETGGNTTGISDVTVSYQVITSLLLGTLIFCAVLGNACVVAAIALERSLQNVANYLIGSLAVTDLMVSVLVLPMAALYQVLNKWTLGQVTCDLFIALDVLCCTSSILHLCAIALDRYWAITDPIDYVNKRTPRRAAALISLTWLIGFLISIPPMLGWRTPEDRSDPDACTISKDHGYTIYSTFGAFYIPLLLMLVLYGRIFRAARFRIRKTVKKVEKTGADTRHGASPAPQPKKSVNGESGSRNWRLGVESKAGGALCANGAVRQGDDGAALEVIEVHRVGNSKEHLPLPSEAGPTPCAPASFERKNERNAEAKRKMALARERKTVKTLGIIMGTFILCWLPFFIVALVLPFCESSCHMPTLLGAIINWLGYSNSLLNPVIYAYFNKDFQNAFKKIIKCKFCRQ

Mu-type opioid receptor = Mu-type opioid receptor (Homo sapiens, UniProt P35372); test: biochemical; format: functional
[3] = target: 5-hydroxytryptamine receptor 2A (Homo sapiens, UniProt P28223); format: functional, cell-based
[4] = target: Beta-2 adrenergic receptor (Homo sapiens, UniProt P07550); format: functional, cell-based
[5] = target: T3, Alpha-2C adrenergic receptor (Homo sapiens, UniProt P18825); format: functional
T3 sequence (P18825 whole entry): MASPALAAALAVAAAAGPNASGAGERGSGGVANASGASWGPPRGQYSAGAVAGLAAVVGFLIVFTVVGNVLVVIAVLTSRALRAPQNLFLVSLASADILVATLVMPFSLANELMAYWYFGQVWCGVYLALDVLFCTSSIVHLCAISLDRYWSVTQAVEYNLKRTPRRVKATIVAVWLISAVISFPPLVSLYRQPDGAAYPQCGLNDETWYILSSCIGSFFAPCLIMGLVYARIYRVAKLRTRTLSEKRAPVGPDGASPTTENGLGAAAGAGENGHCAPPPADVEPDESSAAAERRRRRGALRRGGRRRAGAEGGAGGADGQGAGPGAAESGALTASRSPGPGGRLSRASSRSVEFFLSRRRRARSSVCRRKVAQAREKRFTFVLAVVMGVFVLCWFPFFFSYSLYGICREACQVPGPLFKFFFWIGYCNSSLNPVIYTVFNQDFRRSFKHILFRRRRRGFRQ

Glucocorticoid receptor = target: T4, Glucocorticoid receptor (Homo sapiens, UniProt P04150)
T4 sequence (P04150 whole entry): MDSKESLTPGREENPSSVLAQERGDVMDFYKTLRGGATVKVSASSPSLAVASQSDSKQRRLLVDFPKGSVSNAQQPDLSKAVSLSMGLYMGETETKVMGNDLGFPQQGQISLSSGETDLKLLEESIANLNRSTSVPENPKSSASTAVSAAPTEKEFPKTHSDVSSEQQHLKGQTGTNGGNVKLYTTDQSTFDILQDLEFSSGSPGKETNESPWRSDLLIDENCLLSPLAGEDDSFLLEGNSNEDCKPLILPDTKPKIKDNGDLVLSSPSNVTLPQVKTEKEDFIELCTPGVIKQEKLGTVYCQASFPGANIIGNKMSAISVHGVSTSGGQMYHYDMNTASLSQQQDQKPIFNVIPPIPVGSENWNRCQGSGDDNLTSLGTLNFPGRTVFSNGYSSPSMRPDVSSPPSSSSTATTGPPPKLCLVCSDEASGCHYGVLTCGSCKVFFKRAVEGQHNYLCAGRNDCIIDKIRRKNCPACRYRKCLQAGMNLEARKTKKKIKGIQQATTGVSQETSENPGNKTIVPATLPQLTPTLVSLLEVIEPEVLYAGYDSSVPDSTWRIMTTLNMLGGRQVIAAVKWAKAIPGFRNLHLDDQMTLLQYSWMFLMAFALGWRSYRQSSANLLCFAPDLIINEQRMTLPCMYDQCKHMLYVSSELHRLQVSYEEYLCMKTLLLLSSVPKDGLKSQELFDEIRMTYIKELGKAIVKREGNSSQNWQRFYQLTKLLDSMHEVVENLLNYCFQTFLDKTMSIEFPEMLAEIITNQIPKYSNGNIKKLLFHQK

Cannabinoid receptor 1 = Cannabinoid receptor 1 (Homo sapiens, UniProt P21554)
Also: assay procedure not described here.

Sequence of Beta-2 adrenergic receptor (P07550 whole entry): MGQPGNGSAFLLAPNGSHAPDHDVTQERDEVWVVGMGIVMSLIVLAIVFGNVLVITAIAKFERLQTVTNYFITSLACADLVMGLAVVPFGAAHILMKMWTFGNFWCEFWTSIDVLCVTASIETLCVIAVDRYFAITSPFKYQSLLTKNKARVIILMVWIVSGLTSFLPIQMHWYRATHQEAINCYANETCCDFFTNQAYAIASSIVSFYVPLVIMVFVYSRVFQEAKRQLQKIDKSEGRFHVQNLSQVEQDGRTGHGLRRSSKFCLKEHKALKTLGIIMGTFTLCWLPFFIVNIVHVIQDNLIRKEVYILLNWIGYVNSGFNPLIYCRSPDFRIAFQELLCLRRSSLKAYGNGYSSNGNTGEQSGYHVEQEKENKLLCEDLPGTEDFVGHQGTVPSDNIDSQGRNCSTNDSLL
Sequence of Cannabinoid receptor 1 (P21554 whole entry): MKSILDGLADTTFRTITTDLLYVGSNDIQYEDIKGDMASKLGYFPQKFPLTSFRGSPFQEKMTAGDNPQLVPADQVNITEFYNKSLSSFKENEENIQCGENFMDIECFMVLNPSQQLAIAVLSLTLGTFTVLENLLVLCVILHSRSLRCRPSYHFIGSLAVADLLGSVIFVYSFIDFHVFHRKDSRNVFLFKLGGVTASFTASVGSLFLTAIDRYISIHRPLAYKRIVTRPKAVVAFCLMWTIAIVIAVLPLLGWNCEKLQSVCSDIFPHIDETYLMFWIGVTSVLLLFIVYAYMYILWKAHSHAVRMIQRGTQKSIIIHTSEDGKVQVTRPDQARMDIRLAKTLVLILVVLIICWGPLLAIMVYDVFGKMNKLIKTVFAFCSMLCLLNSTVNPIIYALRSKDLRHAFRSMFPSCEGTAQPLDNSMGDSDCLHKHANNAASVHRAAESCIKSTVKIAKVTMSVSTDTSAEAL
Sequence of Mu-type opioid receptor (P35372 whole entry): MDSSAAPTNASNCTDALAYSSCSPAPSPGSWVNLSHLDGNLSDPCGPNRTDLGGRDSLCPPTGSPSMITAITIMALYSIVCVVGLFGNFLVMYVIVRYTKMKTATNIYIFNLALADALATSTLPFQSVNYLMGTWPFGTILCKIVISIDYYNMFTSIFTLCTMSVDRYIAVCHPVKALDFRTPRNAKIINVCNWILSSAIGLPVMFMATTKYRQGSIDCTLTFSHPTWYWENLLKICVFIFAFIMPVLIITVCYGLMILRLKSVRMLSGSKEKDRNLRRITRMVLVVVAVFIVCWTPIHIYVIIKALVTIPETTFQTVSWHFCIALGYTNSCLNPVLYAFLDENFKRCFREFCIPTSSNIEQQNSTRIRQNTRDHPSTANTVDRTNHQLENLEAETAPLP
Sequence of 5-hydroxytryptamine receptor 2A (P28223 whole entry): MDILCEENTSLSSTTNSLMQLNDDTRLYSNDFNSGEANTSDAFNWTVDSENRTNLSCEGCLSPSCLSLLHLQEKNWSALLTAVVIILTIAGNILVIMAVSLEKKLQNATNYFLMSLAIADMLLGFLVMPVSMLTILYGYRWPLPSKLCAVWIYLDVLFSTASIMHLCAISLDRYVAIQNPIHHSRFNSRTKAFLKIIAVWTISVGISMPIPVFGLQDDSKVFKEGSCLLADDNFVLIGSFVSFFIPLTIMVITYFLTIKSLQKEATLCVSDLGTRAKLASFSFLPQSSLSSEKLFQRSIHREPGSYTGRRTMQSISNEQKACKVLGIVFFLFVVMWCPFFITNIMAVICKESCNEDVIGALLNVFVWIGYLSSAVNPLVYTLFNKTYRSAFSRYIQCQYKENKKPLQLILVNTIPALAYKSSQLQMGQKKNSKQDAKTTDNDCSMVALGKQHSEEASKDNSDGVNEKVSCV
Sequence of Vasopressin V1a receptor (P37288 whole entry): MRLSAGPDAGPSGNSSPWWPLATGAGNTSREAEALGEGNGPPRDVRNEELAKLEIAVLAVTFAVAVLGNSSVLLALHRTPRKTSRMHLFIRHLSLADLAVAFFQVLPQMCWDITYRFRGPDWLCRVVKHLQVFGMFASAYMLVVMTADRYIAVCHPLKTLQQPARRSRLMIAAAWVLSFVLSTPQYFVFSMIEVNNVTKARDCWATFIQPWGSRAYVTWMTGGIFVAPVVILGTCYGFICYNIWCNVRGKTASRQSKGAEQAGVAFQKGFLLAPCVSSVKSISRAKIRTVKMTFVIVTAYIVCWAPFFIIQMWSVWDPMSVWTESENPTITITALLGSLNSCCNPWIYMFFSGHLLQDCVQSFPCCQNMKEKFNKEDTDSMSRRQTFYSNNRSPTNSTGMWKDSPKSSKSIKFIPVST

| Compound | AC50 [1] [µM] | AC50 (Vasopressin V1a receptor) [µM] | AC50 [2] [µM] | AC50 (Mu-type opioid receptor) [µM] | AC50 [3] [µM] | AC50 [4] [µM] | AC50 [5] [µM] | AC50 (Glucocorticoid receptor) [µM] | AC50 (Cannabinoid receptor 1) [µM] |
| --- | --- | --- | --- | --- | --- | --- | --- | --- | --- |
| Cc1ccc(S(=O)(=O)NC(=O)N[C@H]2[C@H]3CC[C@@](C)([C@H]2O)C3(C)C)cc1 [GLIBORNURIDE] | > 30 | > 30 | > 30 | > 30 | > 30 | > 30 | > 30 | > 30 |  |
| CCC(NC(C)C)C(O)c1ccc(O)c(O)c1 (configuration not stated) [ISOETHARINE] | > 30 | > 30 | > 30 | > 30 | > 30 |  | > 30 |  | > 30 |
| CCC(=O)O[C@H](CC(=O)O)C[N+](C)(C)C [LEVOCARNITINE PROPIONATE] | > 30 | > 30 | > 30 | > 30 | > 30 | > 30 | > 30 | > 30 |  |
| O=C(O)c1nn(Cc2ccc(Cl)cc2Cl)c2ccccc12 [LONIDAMINE] | > 30 | > 30 | > 30 | > 30 | > 30 | > 10 | > 30 | > 30 |  |
| COc1nc(C)nc(Cl)c1N=C1NCCN1 [MOXONIDINE] |  |  | > 30 | > 30 |  | > 30 |  | > 30 |  |
| COC(=O)c1ccc2c(c1)NC(=O)/C2=C(\Nc1ccc(N(C)C(=O)CN2CCN(C)CC2)cc1)c1ccccc1 [NINTEDANIB] | > 30 | > 30 |  | > 30 | > 30 | > 30 | > 30 | > 30 |  |
| CN1CCCN=C1/C=C/c1cccc(O)c1 [OXANTEL] | > 30 | > 30 | > 30 | > 30 | > 30 | > 30 | > 30 | > 30 |  |
| CCOC(=O)O[C@]1(C(=O)COC(=O)CC)CC[C@H]2[C@@H]3CCC4=CC(=O)C=C[C@]4(C)[C@H]3[C@@H](O)C[C@@]21C [PREDNICARBATE] | > 10 | > 10 | > 10 | > 30 | > 10 |  | > 10 | 0.017 | > 10 |
| CCC(=O)[C@@]1(C)[C@H](C)C[C@H]2[C@@H]3CCC4=CC(=O)C=C[C@]4(C)[C@H]3[C@@H](O)C[C@@]21C [RIMEXOLONE] | > 10 | > 10 | > 10 | > 30 | > 10 |  | > 10 | 0.01 | 6.91 |
| CS(=O)(=O)NC(=O)CCC/C=C\C[C@H]1C(=O)C[C@@H](O)[C@@H]1/C=C/[C@@H](O)COc1ccccc1 [SULPROSTONE] | > 30 | > 30 | > 30 | > 30 | > 30 | > 30 | > 30 | > 30 |  |
| Cc1cccc(Nc2ccncc2S(=O)(=O)NC(=O)NC(C)C)c1 [TORSEMIDE] |  | > 30 | > 10 | > 30 |  |  | > 10 | > 10 | > 10 |
| OCC(CO)N[C@H]1C[C@](O)(CO)[C@@H](O)[C@H](O)[C@H]1O [VOGLIBOSE] | > 30 | > 30 |  | > 30 | > 30 |  | > 30 | > 30 | > 30 |
